Laboratory results taken from patent US6737383B1, “Herbicidal oxadiazolidines” (priority 1999, dated 2004).

What was measured:
bedstraw = experiment: Test B pre/postemergence bedstraw; assay type: in vivo, Galium aparine
Outline: (§1)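 Test chemicals in a non-phytotoxic solvent mixture with surfactant were sprayed preemergence onto planted seeds and postemergence onto plants 2 to 18 cm tall (1- to 4-leaf stage). After twelve to sixteen days in a greenhouse, injury was visually rated against untreated controls from 0 (no effect) to 10 (complete control).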

blackgrass = experiment: Test B pre/postemergence blackgrass; assay type: in vivo, Alopecurus myosuroides
Outline: as §1

surinam grass = experiment: Test B pre/postemergence surinam grass; assay type: in vivo, Brachiaria decumbens
Outline: as §1

cocklebur = experiment: Test B pre/postemergence cocklebur; assay type: in vivo, Xanthium strumarium
Outline: as §1

corn = experiment: Test B pre/postemergence corn; assay type: in vivo, Zea mays
Outline: as §1

crabgrass = experiment: Test B pre/postemergence crabgrass; assay type: in vivo, Digitaria sanguinalis
Outline: as §1

giant foxtail = experiment: Test B pre/postemergence giant foxtail; assay type: in vivo, Setaria faberii
Outline: as §1

morningglory = experiment: Test B pre/postemergence morningglory; assay type: in vivo, Ipomoea hederacea
Outline: as §1

pigweed = experiment: Test B pre/postemergence pigweed; assay type: in vivo, Amaranthus retroflexus
Outline: as §1

rape = experiment: Test B pre/postemergence rape; assay type: in vivo, Brassica napus
Outline: as §1

soybean = experiment: Test B pre/postemergence soybean; assay type: in vivo, Glycine max
Outline: as §1

sugar beet = experiment: Test B pre/postemergence sugar beet; assay type: in vivo, Beta vulgaris
Outline: as §1

velvetleaf = experiment: Test B pre/postemergence velvetleaf; assay type: in vivo, Abutilon theophrasti
Outline: as §1

wheat = experiment: Test B pre/postemergence wheat; assay type: in vivo, Triticum aestivum
Outline: as §1

wild oat = experiment: Test B pre/postemergence wild oat; assay type: in vivo, Avena fatua
Outline: as §1

purple nutsedge = experiment: Test B pre/postemergence purple nutsedge; assay type: in vivo, Cyperus rotundus; conditions: Postemergence
Outline: as §1

rice = experiment: Test B flood test rice; assay type: in vivo, Oryza sativa
Outline: (§2)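 Plants were grown to the 2-leaf stage before treatment with test chemical, then held in a greenhouse for twelve to sixteen days. Injury was visually rated against untreated controls on a 0–10 scale, where 0 is no effect and 10 is complete control.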

smallflower flatsedge = experiment: Test B flood test smallflower flatsedge; assay type: in vivo, Cyperus difformis
Outline: as §2

duck salad = experiment: Test B flood test duck salad; assay type: in vivo, Heteranthera limosa
Outline: as §2

bamyardgrass = experiment: Test B flood test barnyardgrass; assay type: in vivo, Echinochloa crus-galli
Outline: as §2

[1] = Preemergence, Rate 62 g/ha, scale of 0 to 10 where 0 is no effect and 10 is complete control
[2] = Preemergence, Rate 250 g/ha, scale of 0 to 10 where 0 is no effect and 10 is complete control
[3] = Preemergence, Rate 500 g/ha, scale of 0 to 10 where 0 is no effect and 10 is complete control
[4] = Rate 62 g/ha, Postemergence, scale of 0 to 10 where 0 is no effect and 10 is complete control
[5] = Rate 125 g/ha, Postemergence, scale 0 to 10
[6] = Rate 125 g/ha, Preemergence, scale of 0 to 10 where 0 is no effect and 10 is complete control
[7] = Rate 500 g/ha, Postemergence, scale 0 to 10, 0 no effect, 10 complete control
[8] = Rate 62 g/ha, headed Pre-emergence (flood test species), scale 0 to 10 (0 no effect, 10 complete control)
[9] = Rate 125 g/ha, Pre-emergence, flood test species, scale 0 to 10 where 0 is no effect and 10 is complete control
[10] = Rate 250 g/ha, Pre-emergence, flood-test species, scale 0 to 10, 0 is no effect, 10 is complete control
[11] = Rate 500 g/ha, Pre-emergence, flood test species, scale 0 to 10 (0 no effect, 10 complete control)

Compound: COCCOCn1c(=O)on(C(=O)N(c2ccc(F)cc2)C(C)C)c1=O [Compound 258]
- Bedstraw plant response rating (bedstraw; [1]): 0
- Bedstraw plant response rating (bedstraw; [2]): 3
- Plant response rating, Bedstraw (bedstraw; [3]): 10
- Bedstraw plant response rating (bedstraw; [4]): 2
- Bedstraw plant response rating (bedstraw; [5]): 4
- Bedstraw plant response rating (bedstraw; [6]): 3
- Plant response rating (0 to 10; 0 is no effect, 10 is complete control), Bedstraw (bedstraw; Rate 250 g/ha, Postemergence): 7
- Bedstraw plant response rating (bedstraw; [7]): 8
- Blackgrass plant response rating (blackgrass; [1]): 6
- Blackgrass plant response rating (blackgrass; [2]): 8
- Plant response rating, Blackgrass (blackgrass; [3]): 8
- Blackgrass plant response rating (blackgrass; [4]): 1
- Blackgrass plant response rating (blackgrass; [5]): 5
- Blackgrass plant response rating (blackgrass; [6]): 8
- Plant response rating (0 to 10; 0 is no effect, 10 is complete control), Blackgrass (blackgrass; Rate 250 g/ha, Postemergence): 7
- Blackgrass plant response rating (blackgrass; [7]): 7
- B. signalgrass plant response rating (surinam grass; [1]): 0
- B. signalgrass plant response rating (surinam grass; [2]): 7
- Plant response rating, B. signalgrass (surinam grass; [3]): 8
- B. signalgrass plant response rating (surinam grass; [4]): 0
- B. signalgrass plant response rating (surinam grass; Rate 125 g/ha, Postemergence, scale 0 (no effect) to 10 (complete control)): 0
- B. signalgrass plant response rating (surinam grass; [6]): 4
- Plant response rating (0 to 10; 0 is no effect, 10 is complete control), B. signalgrass (surinam grass; Rate 250 g/ha, Postemergence): 4
- B. signalgrass plant response rating (surinam grass; [7]): 8
- Cocklebur plant response rating (cocklebur; [1]): 0
- Cocklebur plant response rating (cocklebur; [2]): 0
- Plant response rating, Cocklebur (cocklebur; [3]): 0
- Cocklebur plant response rating (cocklebur; [4]): 0
- Cocklebur plant response rating (cocklebur; [5]): 0
- Cocklebur plant response rating (cocklebur; [6]): 0
- Plant response rating (0 to 10; 0 is no effect, 10 is complete control), Cocklebur (cocklebur; Rate 250 g/ha, Postemergence): 0
- Cocklebur plant response rating (cocklebur; [7]): 1
- Corn plant response rating (corn; [1]): 0
- Corn plant response rating (corn; [2]): 3
- Plant response rating, Corn (corn; [3]): 5
- Corn plant response rating (corn; [4]): 0
- Corn plant response rating (corn; [5]): 0
- Corn plant response rating (corn; [6]): 2
- Plant response rating (0 to 10; 0 is no effect, 10 is complete control), Corn (corn; Rate 250 g/ha, Postemergence): 0
- Corn plant response rating (corn; [7]): 0
- Crabgrass plant response rating (crabgrass; [1]): 3
- Crabgrass plant response rating (crabgrass; [2]): 9
- Plant response rating, Crabgrass (crabgrass; [3]): 10
- Crabgrass plant response rating (crabgrass; [6]): 7
- Plant response rating (0 to 10; 0 is no effect, 10 is complete control), Crabgrass (crabgrass; Rate 250 g/ha, Postemergence): 2
- Crabgrass plant response rating (crabgrass; [7]): 5
- Giant foxtail plant response rating (giant foxtail; [1]): 8
- Giant foxtail plant response rating (giant foxtail; [2]): 10
- Plant response rating, Giant foxtail (giant foxtail; [3]): 10
- Giant foxtail plant response rating (giant foxtail; [6]): 9
- Plant response rating (0 to 10; 0 is no effect, 10 is complete control), Giant foxtail (giant foxtail; Rate 250 g/ha, Postemergence): 4
- Giant foxtail plant response rating (giant foxtail; [7]): 7
- Morningglory plant response rating (morningglory; [1]): 0
- Morningglory plant response rating (morningglory; [2]): 0
- Plant response rating, Morningglory (morningglory; [3]): 0
- Morningglory plant response rating (morningglory; [6]): 0
- Plant response rating (0 to 10; 0 is no effect, 10 is complete control), Morningglory (morningglory; Rate 250 g/ha, Postemergence): 7
- Morningglory plant response rating (morningglory; [7]): 10
- Redroot pigweed plant response rating (pigweed; [1]): 0
- Redroot pigweed plant response rating (pigweed; [2]): 7
- Plant response rating, Redroot pigweed (pigweed; [3]): 10
- Redroot pigweed plant response rating (pigweed; [6]): 2
- Plant response rating (0 to 10; 0 is no effect, 10 is complete control), Redroot pigweed (pigweed; Rate 250 g/ha, Postemergence): 2
- Redroot pigweed plant response rating (pigweed; [7]): 3
- Rape plant response rating (rape; [1]): 0
- Rape plant response rating (rape; [2]): 5
- Plant response rating, Rape (rape; [3]): 7
- Rape plant response rating (rape; [6]): 1
- Plant response rating (0 to 10; 0 is no effect, 10 is complete control), Rape (rape; Rate 250 g/ha, Postemergence): 0
- Rape plant response rating (rape; [7]): 3
- Soybean plant response rating (soybean; [1]): 0
- Soybean plant response rating (soybean; [2]): 2
- Plant response rating, Soybean (soybean; [3]): 3
- Soybean plant response rating (soybean; [6]): 0
- Soybean plant response rating (soybean; [7]): 6
- Sugarbeets plant response rating (sugar beet; [1]): 0
- Sugarbeets plant response rating (sugar beet; [2]): 5
- Plant response rating, Sugarbeets (sugar beet; [3]): 7
- Sugarbeets plant response rating (sugar beet; [6]): 2
- Sugarbeets plant response rating (sugar beet; [7]): 2
- Velvetleaf plant response rating (velvetleaf; [1]): 2
- Velvetleaf plant response rating (velvetleaf; [2]): 5
- Plant response rating, Velvetleaf (velvetleaf; [3]): 7
- Velvetleaf plant response rating (velvetleaf; [6]): 5
- Velvetleaf plant response rating (velvetleaf; [7]): 0
- Wheat plant response rating (wheat; [1]): 0
- Wheat plant response rating (wheat; [2]): 4
- Plant response rating, Wheat (wheat; [3]): 7
- Wheat plant response rating (wheat; [6]): 4
- Wheat plant response rating (wheat; [7]): 6
- Wild oats plant response rating (wild oat; [1]): 2
- Wild oats plant response rating (wild oat; [2]): 5
- Plant response rating, Wild oats (wild oat; [3]): 6
- Wild oats plant response rating (wild oat; [6]): 4
- Wild oats plant response rating (wild oat; [7]): 3
- Plant response rating (0 to 10; 0 is no effect, 10 is complete control), Nutsedge (purple nutsedge; Rate 250 g/ha): 0
- Nutsedge plant response rating (purple nutsedge; Rate 500 g/ha, scale 0 to 10, 0 no effect, 10 complete control): 0
- Rice plant response rating (rice; [8]): 0
- Rice plant response rating (rice; [9]): 0
- Rice plant response rating (rice; [10]): 0
- Rice plant response rating (rice; [11]): 0
- S. Flatsedge plant response rating (smallflower flatsedge; [8]): 0
- S. Flatsedge plant response rating (smallflower flatsedge; [9]): 0
- S. Flatsedge plant response rating (smallflower flatsedge; [10]): 0
- S. Flatsedge plant response rating (smallflower flatsedge; [11]): 0
- Ducksalad plant response rating (duck salad; [8]): 0
- Ducksalad plant response rating (duck salad; [9]): 0
- Ducksalad plant response rating (duck salad; [10]): 0
- Ducksalad plant response rating (duck salad; [11]): 0
- Barnyardgrass plant response rating (bamyardgrass; [8]): 0
- Barnyardgrass plant response rating (bamyardgrass; [9]): 0
- Barnyardgrass plant response rating (bamyardgrass; [10]): 0
- Barnyardgrass plant response rating (bamyardgrass; [11]): 0
